Legend:
Type in all cases: in vivo
[1] = system: barnyardgrass (Echinochloa crus-galli); assay: Test A greenhouse herbicide test, pre- and postemergence
In short: (§1)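 Seeds sown in loam–sand blend got a preemergence directed soil spray of compound in non-phytotoxic solvent with surfactant. Postemergence treatment was given at 2–10 cm, one- to two-leaf stage. After ~10 d in greenhouse, injury was rated visually vs untreated controls, 0 (no effect) to 100 (complete control).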

[2] = system: corn (Zea mays); assay: as above; conditions: Postemergence
In short: as §1

[3] = system: foxtail, giant (giant foxtail, Setaria faberii); assay: as above
In short: as §1

[4] = system: kochia (Kochia scoparia); assay: as above
In short: as §1

[5] = system: pigweed (Amaranthus retroflexus); assay: as above
In short: as §1

[6] = system: ragweed (common ragweed, Ambrosia elatior); assay: as above
In short: as §1

[7] = system: ryegrass, Italian (Italian ryegrass, Lolium multiflorum); assay: as above
In short: as §1

[8] = system: wheat (Triticum aestivum); assay: as above; conditions: Postemergence
In short: as §1

[9] = system: lambsquarters (Chenopodium album); assay: Test C greenhouse herbicide test, pre- and postemergence
In short: (§2)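 Preemergence: seeds sown in a loam soil–sand blend and sprayed with test chemicals in a non-phytotoxic solvent mixture containing surfactant. Postemergence: plants grown in peat-based medium and treated at 2 to 18 cm (1- to 4-leaf stage). After 13 to 15 d in a greenhouse, injury was visually rated 0–100 against controls.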

[10] = system: nutsedge, yellow (yellow nutsedge, Cyperus esculentus); assay: as above
In short: as §2

[11] = system: ryegrass, Italian (Italian ryegrass, Lolium multiflorum); assay: as above
In short: as §2

[12] = Postemergence, 125 g ai/ha, 0 to 100 scale where 0 is no effect and 100 is complete control
[13] = Postemergence, 500 g ai/ha, 0 to 100 scale, 0 is no effect, 100 is complete control
[14] = Preemergence, 125 g ai/ha, 0 to 100 scale where 0 is no effect and 100 is complete control
[15] = Preemergence, 500 g ai/ha, 0 to 100 scale where 0 is no effect and 100 is complete control
[16] = 125 g ai/ha, 0 to 100 scale where 0 is no effect and 100 is complete control
[17] = 500 g ai/ha, visual rating after approx. 10 d, 0 to 100 scale (0 no effect, 100 complete control)
[18] = Postemergence, 500 g ai/ha, visual rating after approx. 10 d, 0 to 100 scale (0 no effect, 100 complete control)
[19] = Postemergence, 31 g ai/ha, scale 0 to 100 (0 no effect, 100 complete control)
[20] = Postemergence, 125 g ai/ha, scale 0 to 100, 0 is no effect, 100 is complete control
[21] = Postemergence, 250 g ai/ha, scale 0 to 100, 0 no effect, 100 complete control, 13 to 15 d
[22] = Preemergence, 31 g ai/ha, scale 0 to 100, 0 is no effect, 100 is complete control
[23] = Preemergence, 62 g ai/ha, scale 0 to 100, 0 is no effect, 100 is complete control
[24] = Preemergence, 125 g ai/ha, scale 0 to 100, 0 is no effect, 100 is complete control
[25] = Preemergence, 250 g ai/ha, scale 0 to 100 (0 no effect, 100 complete control)

In the case of `CCCC(=O)Oc1c(C)nn(C)c(=O)c1-c1c(C)sc2c(C)cc(C)cc12` [Compound 106], the “Plant response rating, Barnyardgrass” value [1, 12] is reported as 70, the “Barnyardgrass plant response rating” value [1, 13] is reported as 90 and the “Barnyardgrass plant response rating” value [1, 14] is reported as 80. For the same compound, the “Plant response rating, Barnyardgrass” value [1, 15] was 100, the “Plant response rating, Corn” value [2, 16] was 0 and the “Plant response rating, Corn” value [2, 17] was 20. The “Plant response rating, Foxtail, Giant” value [3, 12] was 90, the “Plant response rating, Foxtail, Giant” value [3, 18] was 90 and the “Foxtail, Giant plant response rating” value [3, 14] was 100. For the same compound, the “Plant response rating, Foxtail, Giant” value [3, 15] was 100, the “Plant response rating, Kochia” value [4, 12] was 70 and the “Plant response rating, Kochia” value [4, 18] was 90. For the same compound, the “Kochia plant response rating” value [4, 14] was 20, the “Plant response rating, Kochia” value [4, 15] was 90 and the “Plant response rating, Pigweed” value [5, 12] was 90. For the same compound, the “Plant response rating, Pigweed” value [5, 18] was 90, the “Pigweed plant response rating” value [5, 14] was 100 and the “Plant response rating, Pigweed” value [5, 15] was 100. The “Plant response rating, Ragweed” value [6, 12] was 90, the “Plant response rating, Ragweed” value [6, 18] was 90 and the “Ragweed plant response rating” value [6, 14] was 90. The “Plant response rating, Ragweed” value [6, 15] was 100, the “Plant response rating, Ryegrass, Italian” value [7, 12] was 90 and the “Plant response rating, Ryegrass, Italian” value [7, 18] was 100. The “Ryegrass, Italian plant response rating” value [7, 14] was 100, the “Plant response rating, Ryegrass, Italian” value [7, 15] was 100 and the “Plant response rating, Wheat” value [8, 16] was 0. For the same compound, the “Plant response rating, Wheat” value [8, 17] was 20, the “Plant response rating, Lambsquarters” value [9, 19] was 85 and the “Plant response rating, Lambsquarters” value [9, 20] was 95. The “Plant response rating, Lambsquarters” value [9, 21] was 98, the “Plant response rating, Lambsquarters” value [9, 22] was 90 and the “Plant response rating, Lambsquarters” value [9, 23] was 90. The “Plant response rating, Lambsquarters” value [9, 24] was 100, the “Lambsquarters plant response rating” value [9, 25] was 100 and the “Plant response rating, Nutsedge, Yellow” value [10, 19] was 65. For the same compound, the “Plant response rating, Nutsedge, Yellow” value [10, 20] was 90, the “Plant response rating, Nutsedge, Yellow” value [10, 21] was 80 and the “Plant response rating, Nutsedge, Yellow” value [10, 22] was 60. The “Plant response rating, Nutsedge, Yellow” value [10, 23] was 70, the “Plant response rating, Nutsedge, Yellow” value [10, 24] was 80 and the “Nutsedge, Yellow plant response rating” value [10, 25] was 90. The “Plant response rating, Ryegrass, Italian” value [11, 19] was 85, the “Plant response rating, Ryegrass, Italian” value [11, 20] was 90 and the “Plant response rating, Ryegrass, Italian” value [11, 21] was 35. For the same compound, the “Plant response rating, Ryegrass, Italian” value [11, 22] was 50, the “Plant response rating, Ryegrass, Italian” value [11, 23] was 70 and the “Plant response rating, Ryegrass, Italian” value [11, 24] was 85. The “Ryegrass, Italian plant response rating” value [11, 25] was 90.
For `CCC(=O)Oc1c(C)nn(C)c(=O)c1-c1c(C)sc2ccc(Cl)cc12` [Compound 109], the “Plant response rating, Barnyardgrass” value [1, 12] was 30, the “Barnyardgrass plant response rating” value [1, 13] was 90 and the “Barnyardgrass plant response rating” value [1, 14] was 20. The “Plant response rating, Barnyardgrass” value [1, 15] was 100, the “Plant response rating, Corn” value [2, 16] was 0 and the “Plant response rating, Corn” value [2, 17] was 30. For the same compound, the “Plant response rating, Foxtail, Giant” value [3, 12] was 70, the “Plant response rating, Foxtail, Giant” value [3, 18] was 90 and the “Foxtail, Giant plant response rating” value [3, 14] was 90. For the same compound, the “Plant response rating, Foxtail, Giant” value [3, 15] was 100, the “Plant response rating, Kochia” value [4, 12] was 90 and the “Plant response rating, Kochia” value [4, 18] was 90. For the same compound, the “Kochia plant response rating” value [4, 14] was 100, the “Plant response rating, Kochia” value [4, 15] was 100 and the “Plant response rating, Pigweed” value [5, 12] was 90. The “Plant response rating, Pigweed” value [5, 18] was 90, the “Pigweed plant response rating” value [5, 14] was 100 and the “Plant response rating, Pigweed” value [5, 15] was 100. The “Plant response rating, Ragweed” value [6, 12] was 80, the “Plant response rating, Ragweed” value [6, 18] was 100 and the “Ragweed plant response rating” value [6, 14] was 100. For the same compound, the “Plant response rating, Ragweed” value [6, 15] was 100, the “Plant response rating, Ryegrass, Italian” value [7, 12] was 100 and the “Plant response rating, Ryegrass, Italian” value [7, 18] was 100. The “Ryegrass, Italian plant response rating” value [7, 14] was 100, the “Plant response rating, Ryegrass, Italian” value [7, 15] was 100 and the “Plant response rating, Wheat” value [8, 16] was 20. The “Plant response rating, Wheat” value [8, 17] was 30, the “Plant response rating, Lambsquarters” value [9, 19] was 95 and the “Plant response rating, Lambsquarters” value [9, 20] was 100. For the same compound, the “Plant response rating, Lambsquarters” value [9, 21] was 100, the “Plant response rating, Lambsquarters” value [9, 22] was 80 and the “Plant response rating, Lambsquarters” value [9, 23] was 90. For the same compound, the “Plant response rating, Lambsquarters” value [9, 24] was 90, the “Lambsquarters plant response rating” value [9, 25] was 100 and the “Plant response rating, Nutsedge, Yellow” value [10, 19] was 45. For the same compound, the “Plant response rating, Nutsedge, Yellow” value [10, 20] was 80, the “Plant response rating, Nutsedge, Yellow” value [10, 21] was 80 and the “Plant response rating, Nutsedge, Yellow” value [10, 22] was 40. For the same compound, the “Plant response rating, Nutsedge, Yellow” value [10, 23] was 70, the “Plant response rating, Nutsedge, Yellow” value [10, 24] was 90 and the “Nutsedge, Yellow plant response rating” value [10, 25] was 80. The “Plant response rating, Ryegrass, Italian” value [11, 19] was 90, the “Plant response rating, Ryegrass, Italian” value [11, 20] was 90 and the “Plant response rating, Ryegrass, Italian” value [11, 21] was 90. The “Plant response rating, Ryegrass, Italian” value [11, 22] was 70, the “Plant response rating, Ryegrass, Italian” value [11, 23] was 90 and the “Plant response rating, Ryegrass, Italian” value [11, 24] was 90. The “Ryegrass, Italian plant response rating” value [11, 25] was 95.

Reference: patent US10597388B2, “Pyridazinone herbicides” (FMC CORPORATION, priority 2014, dated 2020)
